Counter-ions that a name gives are not always drawn. Like-named read-outs stand apart in the source and are kept apart here.
Tests used:
[1] = tested on: methylphenidate-induced gnawing; experiment: Methylphenidate antagonism; format: in vivo, mice
[2] = target: T1, dopamine (DA) D-2 receptors (Rattus norvegicus, UniProt P61169); experiment: 3H-spiroperidol binding, dopamine D-2 receptors in rat striatal membranes
T1 construct: DA D-2 receptors in rat striatal membranes; from tissue; host or cells: rat striatal membranes
Procedure: 4. ^3 H-spiroperidol bindings
The affinity of compounds to dopamine (DA) D-2 receptors and serotomin2 (5-HT2) receptors was determined by in vitro receptor binding technique.
Arnt, J., J. Hyttel and J.-J. Larsen: Acta pharmacol. et toxicol.

5-HT2 receptor = target: T2, 5-HT2 receptor (Rattus norvegicus, UniProt P14842); experiment: Quipazine inhibition (head twitches); format: in vivo; conditions: sc 2 hours before quipazine 15 umol/kg sc
T2 construct: from tissue; host or cells: living rats (in vivo), CNS
Procedure: Quipazine and a number of other compounds, which increase 5-HT2 receptor activity in the CNS, induce a characteristic rapid shake (twitch) of the head. This response is inhibited by 5-HT2 receptor antagonists (Vetulani et al. 1980, Arnt et al. 1984).
The test compound or saline is injected subcutaneously 2 hours before subcutaneous injection of quipazine hemimalecate (15umol/kg). At least 3 dose groups, each consisting of at least 4 rats, are used. The rats are individually placed in observation cages (12×25 cm) and the number of head twitches are counted 30-40 min after quipazine administration. Inhibition of head twitches is expressed in per cent of the number of head twitches in the control group. ED 50 values are calculated by log-probit analysis.
Vetulani, J., B.B. Beduarczyk, K. Reichenberg and A. Rokost: Neuropharmacology 19, 155-158, […].
Arnt, J., J. Hyttel and J.-J. Larsen: Acta pharmacol. et toxicol. 55, 363-372, 1984.

Catalepsy = format: in vivo, rat; conditions: for ED50: Rattus norvegicus
[3] = Mus musculus, sc; read-out: MePh Antg. ED50 (sc)
[4] = Mus musculus, sc, read-out: MePh Antg. ED50 (sc)
[5] = po, 24 h, read-out: Catalep. ED50(po) 24 h
[6] = po, read-out: Catalep. ED50(po) 1-6 h
[7] = sc, 24 h, read-out: Catalep. ED50 (sc) 24 h
[8] = sc, read-out: Catalep. ED50 (sc) 1-6 h

T2 sequence (P14842 whole entry): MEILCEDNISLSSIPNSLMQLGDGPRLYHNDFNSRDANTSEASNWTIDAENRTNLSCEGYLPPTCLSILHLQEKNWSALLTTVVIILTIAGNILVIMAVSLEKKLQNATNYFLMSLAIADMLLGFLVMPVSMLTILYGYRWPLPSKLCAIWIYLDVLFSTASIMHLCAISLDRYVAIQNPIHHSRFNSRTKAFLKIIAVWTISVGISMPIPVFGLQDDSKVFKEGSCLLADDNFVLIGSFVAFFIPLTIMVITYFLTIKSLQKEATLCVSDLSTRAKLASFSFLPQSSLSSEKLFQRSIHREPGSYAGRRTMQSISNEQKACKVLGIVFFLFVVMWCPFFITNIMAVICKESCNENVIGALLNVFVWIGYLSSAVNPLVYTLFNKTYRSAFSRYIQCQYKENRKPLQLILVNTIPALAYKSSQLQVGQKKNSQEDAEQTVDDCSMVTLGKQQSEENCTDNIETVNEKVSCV
T1 sequence (P61169 whole entry): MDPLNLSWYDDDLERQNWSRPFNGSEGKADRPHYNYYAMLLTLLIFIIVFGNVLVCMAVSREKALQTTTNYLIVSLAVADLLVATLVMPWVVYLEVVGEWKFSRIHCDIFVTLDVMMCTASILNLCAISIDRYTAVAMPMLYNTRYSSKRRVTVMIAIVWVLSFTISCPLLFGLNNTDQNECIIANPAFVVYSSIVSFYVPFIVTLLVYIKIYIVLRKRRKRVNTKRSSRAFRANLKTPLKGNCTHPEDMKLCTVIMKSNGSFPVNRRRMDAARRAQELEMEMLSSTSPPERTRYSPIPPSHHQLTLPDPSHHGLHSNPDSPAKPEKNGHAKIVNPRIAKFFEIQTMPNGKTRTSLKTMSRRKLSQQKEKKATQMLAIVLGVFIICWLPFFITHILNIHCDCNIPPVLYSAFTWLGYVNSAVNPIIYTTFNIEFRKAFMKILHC

## O=C1CCCN1CCN1CCC(c2cn(-c3ccc(F)cc3)c3ccc(C(F)(F)F)cc23)CC1 [Lu 23-158, 1-(4'-Fluorophenyl)-3-(1-(1-pyrrolidin-2-onylethyl)-4-piperidyl)-5-trifluoromethyl-1H-indole, fumarate]
[1]; [3]
  ED50: 2.9 µmol/kg

## Cc1ccc2c(c1)c(C1CCN(C)CC1)cn2-c1ccc(F)cc1 [Lu 21-037, 1-(4'-Fluorophenyl)-5-methyl-3-(1-methyl-4-piperidyl)-1H-indole, hydrobromide]
[1]; Mus musculus, ip; i.p. test substance; mice; methylphenidate s.c. 60 mg/kg; read-out: MePh Antg. ED50(ip)
  ED50: 2.1 µmol/kg

## CN1CC=C(c2cn(-c3cccnc3)c3ccc([N+](=O)[O-])cc23)CC1 [Lu 24-016, 3-(1-Methyl-1,2,3,6-tetrahydropyridin-4-yl)-5-nitro-1-pyridin-3-yl-1H-indole]
[1]; [4]
  ED50: > 30 µmol/kg

## CN1CC=C(c2cn(-c3ccccn3)c3ccc([N+](=O)[O-])cc23)CC1 [Lu 24-015, 3-(1-Methyl-1,2,3,6-tetrahydropyridin-4-yl)-5-nitro-1-pyridin-2-yl-1H-indole]
[1]; [4]
  ED50: 3.8 µmol/kg

## OCCN1CC=C(c2cn(-c3ccc(C(F)(F)F)cc3)c3ccccc23)CC1 [Lu 24-012, 3-(1-(2-Hydroxyethyl)-1,2,3,6-tetrahydropyridin-4-yl)-1-(4'-trifluoromethylphenyl-1H-indole, fumarate]
[1]; [4]
  ED50: > 20 µmol/kg

## O=C1NCCN1CCN1CC=C(c2cn(-c3ccc(F)cc3)c3ccc(F)cc23)CC1 [Lu 21-046, oxalate]
[1]; Mus musculus, ip, read-out: MePh Antg. ED50(ip)
  ED50: 48.1 µmol/kg

## CN1CC=C(c2cn(-c3ccc(F)cc3)c3ccccc23)CC1.Cl [Lu 23-083, 1-(4'-Fluorophenyl)-3-(1-methyl-1,2,3,6-tetrahydropyridin-4-yl)-1H-indole, hydrochloride]
[2]
  IC50: 1.8 nM
5-HT2 receptor
  Qvipaz. inh. ED50(sc): 0.15 µmol/kg
[1]; [4]
  ED50: 1.3 µmol/kg
Catalepsy; [5]
  ED50: > 14 µmol/kg
Catalepsy; [6]
  ED50: 9.4 µmol/kg

## O=C1NCCN1CCN1CC=C(c2cn(-c3ccc(F)cc3)c3ccc(Cl)cc23)CC1 [Lu 23-148, 5-Chloro-1-(4'-fluorophenyl)-3-(1-(2-imidazolidinon-1-ylethyl)-1,2,3,6-tetrahydropyridin-4-yl)-1H-indole]
[1]; [4]
  ED50: > 91 µmol/kg

## O=C1NCCN1CCN1CC=C(c2cn(-c3ccc(F)cc3)c3ccc(C(F)(F)F)cc23)CC1 [Lu 23-157, 1-(4'-Fluorophenyl)-3-(1-(2-imidazolidinon-1-ylethyl)-1,2,3,6-tetrahydropridin-4-yl)-5-trifluoromethyl-1H-indole]
5-HT2 receptor
  Qvipaz. inh. ED50(sc): 0.12 µmol/kg
[1]; [4]
  ED50: 0.37 µmol/kg
Catalepsy; [7]
  ED50: 2.6 µmol/kg
Catalepsy; [8]
  ED50: 0.49 µmol/kg

## O=[N+]([O-])c1ccc2c(c1)c(C1=CCNCC1)cn2-c1ccc(F)cc1 [Lu 23-133, 1-(4'-Fluorophenyl)-5-nitro-3-(1,2,3,6-tetrahydropyridin-4-yl)-1H-indole, maleate]
[2]
  IC50: 5.9 nM
[1]; [4]
  ED50: 18 µmol/kg
Catalepsy; [5]
  ED50: > 11 µmol/kg
Catalepsy; [6]
  ED50: 11 µmol/kg

## CC(=O)OCCN1CCN(c2cn(-c3ccc(F)cc3)c3ccc(C(F)(F)F)cc23)CC1 [Lu 23-161]
[1]; [3]
  ED50: 0.05 µmol/kg
Catalepsy; [7]
  ED50: 0.18 µmol/kg
Catalepsy; [8]
  ED50: 0.09 µmol/kg

## CCCCCCCCCC(=O)OCCN1CCN(c2cn(-c3ccc(F)cc3)c3ccc(C(F)(F)F)cc23)CC1 [Lu 23-162]
[1]; [3]
  ED50: 1.7 µmol/kg

## OCCN1CCN(CC/C=C2/c3ccccc3Sc3ccc(C(F)(F)F)cc32)CC1 [Cis(Z)Flupentixol, reference compound]
5-HT2 receptor
  Qvipaz. inh. ED50(sc): 0.042 µmol/kg
[1]; i.p. test substance; mice; methylphenidate s.c. 60 mg/kg
  MePh Antg. ED50(ip): 0.14 µmol/kg
Catalepsy; po, rat, 1-6 h
  Catalep. ED50(po) 1-6 h: 2.4 µmol/kg
Catalepsy; po, rat, 24 h
  Catalep. ED50(po) 24 h: 19 µmol/kg

## CN1CC=C(c2cn(-c3cccs3)c3ccc([N+](=O)[O-])cc23)CC1 [Lu 24-014, 3-(1-Methyl-1,2,3,6-tetrahydropyridin-4-yl)-5-nitro-1-(2-thienyl)-1H-indole, maleate]
[1]; [4]
  ED50: > 22 µmol/kg

## CN1CC=C(c2cn(-c3ccc(F)cc3)c3ccc(N)cc23)CC1 [Lu 23-149, 5-Amino-1-(4'-fluorophenyl)-3-(1-methyl-1,2,3,6-tetrahydropyridin-4-yl)-1H-indole, fumarate]
[1]; [4]
  ED50: 0.45 µmol/kg

## OCCCN1CC=C(c2cn(-c3ccc(F)cc3)c3ccc(C(F)(F)F)cc23)CC1 [Lu 23-171, 1-(4'-Fluorophenyl)-3-(1-(3-hydroxypropyl)-1,2,3,6-tetrahydropyridin-4-yl) -5trifluoromethyl-1H-indole]
[1]; [4]
  ED50: 0.11 µmol/kg
